Assay in all cases: Glasshouse assay for herbicidal activity (pre- and post-emergence), percentage phytotoxicity
Holding throughout (type): in vivo

In assay [1] the test system is Alopecurus myosuroides (ALOMY). The following applies: Alopecurus myosuroides. In short, it runs like this: (§1)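 Sow seed in standard soil in pots; apply test herbicide after 1 day (PRE) or about 12 days (POST). Grow on in the glasshouse, watering twice daily, cool-season species at 20/16 °C and warm-season at 24/18 °C. Score visible damage (0–100%) at 20 or 15 DAA respectively.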

The next assay deals with Avena fatua (AVEFA). The following applies: Avena fatua. The essentials: as §1
Another assay has as its system Lolium perenne (LOLPE). The following applies: Lolium perenne. In short, it runs like this:
as §1

Assay [2] has as its system Echinochloa crus-galli (ECHCG). The following applies: Echinochloa crus-galli. In short, it runs like this:
as §1

[3] abbreviates: post-emergence, 360 h, Rate 250 g/ha, post-emergence, assessed visually 15 DAA, 100%=total damage, 0%=no damage, read-out: Post-emergence herbicidal activity (percentage phytotoxicity) ALOMY POST.
Where [4] appears, read: pre-emergence, 480 h, Rate 250 g/ha, pre-emergence, assessed visually 20 DAA, 100%=total damage, 0%=no damage, read-out: Pre-emergence herbicidal activity (percentage phytotoxicity) ALOMY PRE.
The mark [5] stands for this setting: post-emergence, 360 h, Rate 250 g/ha, post-emergence, assessed visually 15 DAA, 100%=total damage, 0%=no damage, read-out: Post-emergence herbicidal activity (percentage phytotoxicity) AVEFA POST.
Setting [6] is: pre-emergence, 480 h, Rate 250 g/ha, pre-emergence, assessed visually 20 DAA, 100%=total damage, 0%=no damage, read-out: Pre-emergence herbicidal activity (percentage phytotoxicity) AVEFA PRE.
Setting [7] is: post-emergence, 360 h, Rate 250 g/ha, post-emergence, assessed visually 15 DAA, 100%=total damage, 0%=no damage, read-out: Post-emergence herbicidal activity (percentage phytotoxicity) LOLPE POST.
Where [8] appears, read: pre-emergence, 480 h, Rate 250 g/ha, pre-emergence, assessed visually 20 DAA, 100%=total damage, 0%=no damage, read-out: Pre-emergence herbicidal activity (percentage phytotoxicity) LOLPE PRE.
Setting [9] is: post-emergence, 360 h, Rate 250 g/ha, post-emergence, assessed visually 15 DAA, 100%=total damage, 0%=no damage, read-out: Post-emergence herbicidal activity (percentage phytotoxicity) ECHCG POST.
Setting [10] is: pre-emergence, 480 h, Rate 250 g/ha, pre-emergence, assessed visually 20 DAA, 100%=total damage, 0%=no damage, read-out: Pre-emergence herbicidal activity (percentage phytotoxicity) ECHCG PRE.
The mark [11] stands for this setting: post-emergence, 360 h, 250 g/ha, post-emergence, 15 DAA, visual assessment (100%=total damage, 0%=no damage), read-out: Post-emergence herbicidal activity (percentage phytotoxicity) ALOMY POST.
[12] abbreviates: pre-emergence, 480 h, 250 g/ha, pre-emergence, 20 DAA, visual assessment (100%=total damage, 0%=no damage), read-out: Pre-emergence herbicidal activity (percentage phytotoxicity) ALOMY PRE.
The mark [13] stands for this setting: post-emergence, 360 h, 250 g/ha, post-emergence, 15 DAA, visual assessment (100%=total damage, 0%=no damage), read-out: Post-emergence herbicidal activity (percentage phytotoxicity) AVEFA POST.
Where [14] appears, read: pre-emergence, 480 h, 250 g/ha, pre-emergence, 20 DAA, visual assessment (100%=total damage, 0%=no damage), read-out: Pre-emergence herbicidal activity (percentage phytotoxicity) AVEFA PRE.
[15] abbreviates: post-emergence, 360 h, 250 g/ha, post-emergence, 15 DAA, visual assessment (100%=total damage, 0%=no damage), read-out: Post-emergence herbicidal activity (percentage phytotoxicity) LOLPE POST.
The mark [16] stands for this setting: pre-emergence, 480 h, 250 g/ha, pre-emergence, 20 DAA, visual assessment (100%=total damage, 0%=no damage), read-out: Pre-emergence herbicidal activity (percentage phytotoxicity) LOLPE PRE.
[17] abbreviates: post-emergence, 360 h, 250 g/ha, post-emergence, 15 DAA, visual assessment (100%=total damage, 0%=no damage), read-out: Post-emergence herbicidal activity (percentage phytotoxicity) ECHCG POST.
The mark [18] stands for this setting: pre-emergence, 480 h, 250 g/ha, pre-emergence, 20 DAA, visual assessment (100%=total damage, 0%=no damage), read-out: Pre-emergence herbicidal activity (percentage phytotoxicity) ECHCG PRE.

Where two headings read alike, the source gives them in different places.

In the case of `Cc1cc(-c2ccc(C#N)cc2F)cc(C)c1C1C(=O)CC(CC(=O)NC(C)C)C1=O` (centres unmarked) [Compound A38], the pest or weed control at 250 g/ha in assay [1] (setting [3]) came out at 80%; in assay [1] (setting [4]) it was 80%; in the assay with Avena fatua (AVEFA) (setting [5]), 100%; in the assay with Avena fatua (AVEFA) (setting [6]), 90%; in the assay on Lolium perenne (LOLPE) (setting [7]) it was 80%; with Lolium perenne (LOLPE) (setting [8]) it was 90%. The pest or weed control at 250 g/ha was found to be 90% in assay [2] (setting [9]) and 100% in assay [2] (setting [10]).
Turning to `Cc1cc(C)c(C2C(=O)CC(CC(=O)NC(C)C(C)(C)C)C2=O)c(C)c1` (centres unmarked) [Compound B26], the pest or weed control at 250 g/ha turned out to be 70% in assay [1] (setting [11]); 60% in assay [1] (setting [12]); 60% in the assay on Avena fatua (AVEFA) (setting [13]); 20% in the assay on Avena fatua (AVEFA) (setting [14]); 60% in the assay with Lolium perenne (LOLPE) (setting [15]); 70% with Lolium perenne (LOLPE) (setting [16]). In addition, the pest or weed control at 250 g/ha in assay [2] (setting [17]) was 60%; in assay [2] (setting [18]), 70%.
As for `Cc1cc(-c2ncc(Cl)cc2F)cc(C)c1C1C(=O)CC(CC(=O)NC2CC2)C1=O` (centres unmarked) [Compound A45], the pest or weed control at 250 g/ha (in assay [1] (setting [3]); in assay [1] (setting [4]); in the assay with Avena fatua (AVEFA) (setting [5]); with Avena fatua (AVEFA) (setting [6]); with Lolium perenne (LOLPE) (setting [7]); in the assay on Lolium perenne (LOLPE) (setting [8])) was 100% in each case. The pest or weed control at 250 g/ha in assay [2] (setting [9]) and in assay [2] (setting [10]) was 100% in each case.
Turning to `CCc1cc(OCC(F)(F)F)cc(C)c1C1C(=O)CC(CC(=O)N2CCOCC2)C1=O` (centres unmarked) [Compound B164], the pest or weed control at 250 g/ha in assay [1] (setting [11]) is 100%; in assay [1] (setting [12]) it was 100%; in the assay with Avena fatua (AVEFA) (setting [13]), 90%; in the assay with Avena fatua (AVEFA) (setting [14]) it was 100%; with Lolium perenne (LOLPE) (setting [15]), 100%; with Lolium perenne (LOLPE) (setting [16]), 100%. In addition, the pest or weed control at 250 g/ha in assay [2] (setting [17]) and in assay [2] (setting [18]) was 100% throughout.
Turning to `Cc1cc(-c2ncc(C#N)cn2)cc(C)c1C1C(=O)CC(CC(=O)NCc2cccc(Cl)c2)C1=O` (centres unmarked) [Compound B284], the pest or weed control at 250 g/ha is 100% in assay [1] (post-emergence, 360 h, POST-emergence, rate 250 g/ha, visual score 15 DAA (100%=total damage, 0%=no damage), read-out: Post-emergence herbicidal activity (percentage phytotoxicity) ALOMY POST); 100% in assay [1] (pre-emergence, 480 h, PRE-emergence, rate 250 g/ha, visual score 20 DAA (100%=total damage, 0%=no damage), read-out: Pre-emergence herbicidal activity (percentage phytotoxicity) ALOMY PRE); 100% with Avena fatua (AVEFA) (post-emergence, 360 h, POST-emergence, rate 250 g/ha, visual score 15 DAA (100%=total damage, 0%=no damage), read-out: Post-emergence herbicidal activity (percentage phytotoxicity) AVEFA POST); 70% in the assay with Avena fatua (AVEFA) (pre-emergence, 480 h, PRE-emergence, rate 250 g/ha, visual score 20 DAA (100%=total damage, 0%=no damage), read-out: Pre-emergence herbicidal activity (percentage phytotoxicity) AVEFA PRE); 100% in the assay with Lolium perenne (LOLPE) (post-emergence, 360 h, POST-emergence, rate 250 g/ha, visual score 15 DAA (100%=total damage, 0%=no damage), read-out: Post-emergence herbicidal activity (percentage phytotoxicity) LOLPE POST); 90% in the assay on Lolium perenne (LOLPE) (pre-emergence, 480 h, PRE-emergence, rate 250 g/ha, visual score 20 DAA (100%=total damage, 0%=no damage), read-out: Pre-emergence herbicidal activity (percentage phytotoxicity) LOLPE PRE). For the same compound, the pest or weed control at 250 g/ha in assay [2] (post-emergence, 360 h, POST-emergence, rate 250 g/ha, visual score 15 DAA (100%=total damage, 0%=no damage), read-out: Post-emergence herbicidal activity (percentage phytotoxicity) ECHCG POST) amounted to 100%; in assay [2] (pre-emergence, 480 h, PRE-emergence, rate 250 g/ha, visual score 20 DAA (100%=total damage, 0%=no damage), read-out: Pre-emergence herbicidal activity (percentage phytotoxicity) ECHCG PRE) it was 100%.
Consider `Cc1cc(-c2ccc(F)cc2)cc(C)c1C1C(=O)CC(CC(=O)NC(C)C)C1=O` (centres unmarked) [Compound A34, 2-[3-[4-(4-fluorophenyl)-2,6-dimethyl-phenyl]-2,4-dioxo-cyclopentyl]-N-isopropyl-acetamide], for which the pest or weed control at 250 g/ha (in assay [1] (setting [3]); in assay [1] (setting [4]); in the assay on Avena fatua (AVEFA) (setting [5]); in the assay on Avena fatua (AVEFA) (setting [6]); with Lolium perenne (LOLPE) (setting [7]); in the assay with Lolium perenne (LOLPE) (setting [8])) was 100% in each case. In addition, the pest or weed control at 250 g/ha in assay [2] (setting [9]) and in assay [2] (setting [10]) was 100% throughout.
As to `Cc1cc(C)c(C2C(=O)CC(CC(=O)NCc3cccc([N+](=O)[O-])c3)C2=O)c(C)c1` (centres unmarked) [Compound B20], the pest or weed control at 250 g/ha in assay [1] (setting [11]) was determined as 70%; in assay [1] (setting [12]) it was 80%; in the assay with Avena fatua (AVEFA) (setting [13]), 80%; with Avena fatua (AVEFA) (setting [14]), 90%; in the assay with Lolium perenne (LOLPE) (setting [15]), 40%; with Lolium perenne (LOLPE) (setting [16]) it was 70%. Besides, the pest or weed control at 250 g/ha in assay [2] (setting [17]) and in assay [2] (setting [18]) was 90% in each case.

The values are drawn from US10206394B2, “Herbicidal compounds” (Syngenta Participations AG, priority 2014, dated 2019).
